This is an account of results in patent publication US7163941B2, “Pyrido[2,3-d]pyrimidin-7-carboxylic acid derivatives, their manufacture and use as pharmaceutical agents” (Hoffmann-La Roche Inc., priority 2003, dated 2007).

Structures are written as SMILES.

By IC50 is commonly meant the concentration that inhibits the measured activity by half. Higher therefore signals a need for much substance.

Test [1] addresses T1, Src (p60^c-src, partially purified) (Homo sapiens, UniProt P12931).
T1 construct: purchased Upstate (UBI)
Nature of the test: SRC-Inhibitor-Assay (time-resolved fluorescence), Src enzyme. The conditions noted are these: ATP 5 μM, peptide 10 μM, enzyme 2.5 U/ml, pre-incubation 15 min at 15° C. Type of test: biochemical. The method, then:
(§1) The activity of the compounds according to this invention as inhibitors for the src-family tyrosine kinases was shown by using the following assay.
(§2) SRC-Inhibitor-Assay Parameters:
(§3) • Reaction mixture: • ATP 5 μM • Peptide (R+Ja133-Ro): 10 μM • Ja133-Ro 196 nM • Ro 9.8 μM • PT66 230 ng/ml • Assay buffer: 4 mM MgCl2 • 2 mM TCEP • 50 mM HEPES • 0,1% Tween 20 • pH 7.3 • Enzyme: 2.5 U/ml • Inhibitor: max. 25 μM • min. 0.42 nM Material: • Eu-labelled phosphotyrosine antibody: -for Lck Cisbio Mab PT66-K, • for Src EG&G Wallac PT66 Eu-W1024 (all commercially available). • Peptides: Ro: NH2-A-E-E-E-I-Y-G-E-F-E-A-K-K-K-K-CONH2 (SEQ ID NO: 1), and • Ja133-Ro: Ja133-G-Aminocaprylic acid-A-E-E-E-I-Y-G-E-F-E-A-K-K-K-K-CONH2 (SEQ ID NO: 2), wherein Ja133 is LightCycler-Red 640-N-hydroxy succinimide ester; • whereby both peptides were synthesized by an optimized solid phase peptide synthesis protocol (Merrifield, Fed. Proc. Fed. Amer. Soc. Exp. Biol. 21 (1962) 412) on a Zinsser SMP350 peptide synthesizer. Shortly, the peptide was assembled on 160 mg (22.8 μmol scale) of a Rink-Linker modified polystyrene solid phase by repeatedly conjugating an twenty fold excess of aminoacids each protected by temporary piperidine labile Fmoc- and permanent acid labile tert-Bu-, BOC- and Otert-Bu-groups depending on the side chain function. The substrate sequence AEEEIYGEFEAKKKK (SEQ ID NO: 1) was N-terminal additionally mounted with the spacer amino acids Aminocaprylic acid and Glycin. After cleavage of the N-terminal temporary protecting group the still attached and protected peptide was labeled with a 1.5 fold amount of LightCycler-Red 640-N-hydroxy succinimide ester (purchased by Roche Diagnostics GmbH) and triethylamine. After 3 hrs. the resin was washed with Dimethylformamide and Isopropanol until the eluates of the blue resin got colo-rless. […] The substrate was finally isolated by a preparative reverse phase HPLC purification. The purification yielded 12.2 mg RP-HPLC single peak pure blue material (lyophilisate). The identity was proven by MALDI mass spectroscopy [2720.0]. • Enzymes: Upstate Lck (p56^lck, active), Upstate Src (p60^c-src, partially purified) were purchased from UBI. • Time-resolved Fluorescence Assay: Reader: Perkin Elmer, Wallac Viktor 1420-040 multilabel counter; Liquid handling system: Beckman Coulter, Biomek 2000. ATP, Tween 20, HEPES were purchased from Roche Molecular Biochemicals, MgCl2 and MnCl2 were purchased from Merck Eurolab, TCEP was purchased from Pierce, 384 Well low volume fluorescence plates was purchased from Falcon. Assay Description:
(§4) At first the enzyme is pre-incubated for 15 min. at 15° C. in aqueous solution with corresponding amounts of inhibitors according to this invention. Then the phosphorylation reaction is started by adding a reaction mixture, containing ATP, Peptide and PT66, and subsequent shaking. The proceeding of this reaction is immediately monitored using time resolved fluorescence spectroscopy in a suitable well plate reader.
(§5) The IC50-values can be obtained from the reaction rates by using a non-linear curve fit (Excelfit).

For the next test, the target named is T2, Lck (p56^lck, active) (Homo sapiens, UniProt P06239).
T2 construct: purchased Upstate (UBI)
Nature of the test: SRC-Inhibitor-Assay (time-resolved fluorescence), Lck enzyme. Type of test: biochemical. The note with it: ATP 5 μM, peptide 10 μM, enzyme 2.5 U/ml, pre-incubation 15 min at 15° C. The procedure:
as §1, §2, §3, §4, §5

T2 sequence (P06239 whole entry, species assumed): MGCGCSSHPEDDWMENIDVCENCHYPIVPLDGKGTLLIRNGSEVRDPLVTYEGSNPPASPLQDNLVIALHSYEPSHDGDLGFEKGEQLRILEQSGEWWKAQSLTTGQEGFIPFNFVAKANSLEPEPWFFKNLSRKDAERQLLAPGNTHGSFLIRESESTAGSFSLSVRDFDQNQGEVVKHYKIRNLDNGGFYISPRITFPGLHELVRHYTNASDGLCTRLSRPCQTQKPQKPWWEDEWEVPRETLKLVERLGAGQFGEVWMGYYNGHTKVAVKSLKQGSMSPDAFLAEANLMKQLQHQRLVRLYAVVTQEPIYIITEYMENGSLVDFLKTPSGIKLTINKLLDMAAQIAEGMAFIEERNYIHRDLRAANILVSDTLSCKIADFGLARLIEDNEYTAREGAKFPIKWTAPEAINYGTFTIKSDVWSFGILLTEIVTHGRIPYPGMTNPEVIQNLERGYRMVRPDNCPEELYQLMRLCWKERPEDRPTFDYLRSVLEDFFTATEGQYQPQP
T1 sequence (P12931 whole entry, species assumed): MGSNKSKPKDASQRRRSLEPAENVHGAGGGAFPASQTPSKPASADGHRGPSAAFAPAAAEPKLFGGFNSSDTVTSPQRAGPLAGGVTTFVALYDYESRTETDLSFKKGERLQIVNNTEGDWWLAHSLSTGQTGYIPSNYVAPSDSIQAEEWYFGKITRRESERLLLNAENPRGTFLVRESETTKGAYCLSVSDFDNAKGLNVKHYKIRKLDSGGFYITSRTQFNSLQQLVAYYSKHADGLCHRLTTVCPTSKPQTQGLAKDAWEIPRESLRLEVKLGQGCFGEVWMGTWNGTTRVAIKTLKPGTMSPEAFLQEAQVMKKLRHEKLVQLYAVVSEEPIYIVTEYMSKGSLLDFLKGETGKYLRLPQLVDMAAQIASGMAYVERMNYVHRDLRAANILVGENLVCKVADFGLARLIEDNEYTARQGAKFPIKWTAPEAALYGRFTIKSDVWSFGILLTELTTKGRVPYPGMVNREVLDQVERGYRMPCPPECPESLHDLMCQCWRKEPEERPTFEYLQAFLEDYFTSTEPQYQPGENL

Regarding `CN(C)CCN(C)C(=O)c1nc2nc(Nc3ccc(F)cc3)ncc2cc1-c1ccccc1Br` [Example 3-19, 6-(2-Bromo-phenyl)-2-(4-fluoro-phenylamino)-pyrido[2,3-d]pyrimidine-7-carboxylic acid (2-dimethylamino-ethyl)-methyl-amide], the IC50 in test [1] was found to be 200 nM; at Lck (p56^lck, active), 357 nM.

With `C[S+]([O-])CCNC(=O)c1nc2nc(Nc3ccc(F)cc3)ncc2cc1-c1ccccc1Br` (stereo not drawn) [Example 3-40, 6-(2-Bromo-phenyl)-2-(4-fluoro-phenylamino)-pyrido[2,3-d]pyrimidine-7-carboxylic acid (2-methanesulfinyl-ethyl)-amide], the 50% inhibitory concentration (IC50) in test [1] was found to be 149 nM; on Lck (p56^lck, active) it was 584 nM.

On to `CS(=O)(=O)NCCNC(=O)c1nc2nc(Nc3ccc(OCCO)cc3)ncc2cc1-c1ccccc1Br` [Example 7-18, 6-(2-bromo-phenyl)-2-[4-(2-hydroxy-ethoxy)-phenylamino]-pyrido[2,3-d]pyrimidine-7-carboxylic acid (2-methanesulfonylamino-ethyl)-amide], for which the 50% inhibitory concentration (IC50) was 8.8 nM in test [1] and 18.8 nM against Lck (p56^lck, active).

As for `CSc1cccc(Nc2ncc3cc(-c4ccccc4Br)c(C(=O)NCCN(C)C)nc3n2)c1` [Example 3-8, 6-(2-Bromo-phenyl)-2-(3-methylsulfanyl-phenylamino)-pyrido[2,3-d]pyrimidine-7-carboxylic acid (2-dimethylamino-ethyl)-amide], the IC50 in test [1] was 1.7 nM; against Lck (p56^lck, active), 32.3 nM.

On to `N#Cc1nc2nc(Nc3cccc(S(=O)(=O)CCO)c3)ncc2cc1-c1ccccc1Br` [Example 4-6, 6-(2-Bromo-phenyl)-2-[3-(2-hydroxy-ethanesulfonyl)-phenylamino]-pyrido[2,3-d]pyrimidine-7-carbonitrile], for which the IC50 was 16.2 nM in test [1] and 99.7 nM against Lck (p56^lck, active).

As for `O=C(NCCCN1CCOCC1)c1nc2nc(Nc3ccc(F)cc3)ncc2cc1-c1ccccc1Br` [Example 3-32, 6-(2-Bromo-phenyl)-2-(4-fluoro-phenylamino)-pyrido[2,3-d]pyrimidine-7-carboxylic acid (3-morpholin-4-yl-propyl)-amide], the IC50 came out at 117 nM in test [1] and 195 nM against Lck (p56^lck, active).

Consider `O=C(N[C@H]1CCCNC1)c1nc2nc(Nc3ccc(F)cc3)ncc2cc1-c1ccccc1Br` [Example 3-47, (S)-6-(2-Bromo-phenyl)-2-(4-fluoro-phenylamino)-pyrido[2,3-d]pyrimidine-7-carboxylic acid piperidin-3-ylamide], for which the IC50 in test [1] came out at 6.6 nM; against Lck (p56^lck, active), 27.5 nM.

`CC(=O)NCCNC(=O)c1nc2nc(Nc3ccc(F)cc3)ncc2cc1-c1ccccc1Br` [Example 3-16, 6-(2-Bromo-phenyl)-2-(4-fluoro-phenylamino)-pyrido[2,3-d]pyrimidine-7-carboxylic acid (2-acetylamino-ethyl)-amide]: the IC50 turned out to be 81.4 nM in test [1] and 189 nM against Lck (p56^lck, active).

As for `NC(=O)c1c[nH]nc1NC(=O)c1nc2nc(Nc3ccc(F)cc3)ncc2cc1-c1ccccc1Br` [Example 3-42, 6-(2-Bromo-phenyl)-2-(4-fluoro-phenylamino)-pyrido[2,3-d]pyrimidine-7-carboxylic acid (4-carbamoyl-1H-pyrazol-3-yl)-amide], the IC50 was found to be 56.3 nM in test [1] and 694 nM at Lck (p56^lck, active).

On to `COCCNC(=O)c1nc2nc(Nc3ccc(F)cc3)ncc2cc1-c1ccccc1Br` [Example 3-13, 6-(2-Bromo-phenyl)-2-(4-fluoro-phenylamino)-pyrido[2,3-d]pyrimidine-7-carboxylic acid (2-methoxy-ethyl)-amide], for which the 50% inhibitory concentration (IC50) in test [1] stood at 114 nM; at Lck (p56^lck, active), 360 nM.

Regarding `CN1CCCC1CCNC(=O)c1nc2nc(Nc3ccc(F)cc3)ncc2cc1-c1ccccc1Br` (stereo not drawn) [Example 3-33, 6-(2-Bromo-phenyl)-2-(4-fluoro-phenylamino)-pyrido[2,3-d]pyrimidine-7-carboxylic acid [2-(1-methyl-pyrrolidin-2-yl)-ethyl]-amide], the IC50 in test [1] was 44.7 nM; against Lck (p56^lck, active), 96.9 nM.

Take `O=C(N[C@@H]1CCNC1)c1nc2nc(Nc3ccc(F)cc3)ncc2cc1-c1ccccc1Br` [Example 3-29, (R)-6-(2-Bromo-phenyl)-2-(4-fluoro-phenylamino)-pyrido[2,3-d]pyrimidine-7-carboxylic acid pyrrolidin-3-ylamide]: the IC50 in test [1] was found to be 103 nM; at Lck (p56^lck, active), 429 nM.

For the compound `O=C(NCCO)c1nc2nc(Nc3cccc(CO)c3)ncc2cc1-c1ccccc1Br` [Example 7-4, 6-(2-bromo-phenyl)-2-(3-hydroxymethyl-phenylamino)-pyrido[2,3-d]pyrimidine-7-carboxylic acid (2-hydroxy-ethyl)-amide], the IC50 in test [1] was found to be 30.9 nM; against Lck (p56^lck, active), 99.1 nM.

Consider `CC(=O)Nc1cccc(Nc2ncc3cc(-c4ccccc4Br)c(C(=O)NCCNS(C)(=O)=O)nc3n2)c1` [Example 7-21, 2-(3-acetylamino-phenylamino)-6-(2-bromo-phenyl)-pyrido[2,3-d]pyrimidine-7-carboxylic acid (2-methanesulfonylamino-ethyl)-amide], for which the IC50 worked out at 1.8 nM in test [1] and 12 nM against Lck (p56^lck, active).

As to `NC(=O)NNC(=O)c1nc2nc(Nc3ccc(F)cc3)ncc2cc1-c1ccccc1Br` [Example 3-18, 1-[6-(2-Bromo-phenyl)-2-(4-fluoro-phenylamino)-pyrido[2,3-d]pyrimidine-7-carbonyl]semicarbazide], the half-maximal inhibitory concentration (IC50) in test [1] amounted to 24.8 nM; on Lck (p56^lck, active) it was 68.4 nM.

Regarding `CC(CNC(=O)c1nc2nc(Nc3ccc(F)cc3)ncc2cc1-c1ccccc1Br)N(C)C` (stereo not drawn) [Example 3-27, 6-(2-Bromo-phenyl)-2-(4-fluoro-phenylamino)-pyrido[2,3-d]pyrimidine-7-carboxylic acid (2-dimethylamino-propyl)-amide], the 50% inhibitory concentration (IC50) in test [1] came to 23.9 nM; at Lck (p56^lck, active), 129 nM.

As to `CS(=O)(=O)NCCNC(=O)c1nc2nc(Nc3ccc4c(c3)S(=O)(=O)CCO4)ncc2cc1-c1ccccc1Br` [Example 7-22, 6-(2-bromo-phenyl)-2-(4,4-dioxo-3,4-dihydro-2H-4lambda*6*-benzo[1,4]oxathiin-6-ylamino)-pyrido[2,3-d]pyrimidine-7-carboxylic acid (2-methanesulfonylamino-ethyl)-amide], the IC50 came to 5 nM in test [1] and 37 nM against Lck (p56^lck, active).

For the compound `CNCCCNC(=O)c1nc2nc(Nc3ccc(F)cc3)ncc2cc1-c1ccccc1Br` [Example 3-31, 6-(2-Bromo-phenyl)-2-(4-fluoro-phenylamino)-pyrido[2,3-d]pyrimidine-7-carboxylic acid (3-methylamino-propyl)-amide], the IC50 was determined as 42.8 nM in test [1] and 100 nM on Lck (p56^lck, active).

As to `COc1cccc(Nc2ncc3cc(-c4ccccc4Br)c(C(=O)NCCNS(C)(=O)=O)nc3n2)c1` [Example 7-20, 6-(2-bromo-phenyl)-2-(3-methoxy-phenylamino)-pyrido[2,3-d]pyrimidine-7-carboxylic acid (2-methanesulfonylamino-ethyl)-amide], the IC50 in test [1] was 6.1 nM; at Lck (p56^lck, active), 11.1 nM.

`O=C(NCCCO)c1nc2nc(Nc3ccc(F)cc3)ncc2cc1-c1ccccc1Br` [Example 3-38, 6-(2-Bromo-phenyl)-2-(4-fluoro-phenylamino)-pyrido[2,3-d]pyrimidine-7-carboxylic acid (3-hydroxy-propyl)-amide]: the IC50 in test [1] was found to be 91.8 nM; at Lck (p56^lck, active), 456 nM.

As to `CS(=O)(=O)NCCNC(=O)c1nc2nc(Nc3cccc(SCCO)c3)ncc2cc1-c1ccccc1Br` [Example 7-23, 6-(2-bromo-phenyl)-2-[3-(2-hydroxy-ethylsulfanyl)-phenylamino]-pyrido[2,3-d]pyrimidine-7-carboxylic acid (2-methanesulfonylamino-ethyl)-amide], the IC50 is 1 nM in test [1] and 6.1 nM against Lck (p56^lck, active).
